From publication PMC7237442, “Drosophila taste neurons as an agonist-screening platform for P2X receptors” (Scientific Reports, 2020)
Residue numbers refer to the chain shown, from its start.

Legend:
rat P2X2 [1] = target: T1, rat P2X2 (Rattus norvegicus, UniProt P49653); assay: action potential recording from Drosophila taste neurons; confirmed by whole-cell voltage clamp in HEK […] cells at […]
T1 construct: gene P2rx2; rat P2X2 with C-terminal mCherry fusion
T1 sequence (P49653 1-472): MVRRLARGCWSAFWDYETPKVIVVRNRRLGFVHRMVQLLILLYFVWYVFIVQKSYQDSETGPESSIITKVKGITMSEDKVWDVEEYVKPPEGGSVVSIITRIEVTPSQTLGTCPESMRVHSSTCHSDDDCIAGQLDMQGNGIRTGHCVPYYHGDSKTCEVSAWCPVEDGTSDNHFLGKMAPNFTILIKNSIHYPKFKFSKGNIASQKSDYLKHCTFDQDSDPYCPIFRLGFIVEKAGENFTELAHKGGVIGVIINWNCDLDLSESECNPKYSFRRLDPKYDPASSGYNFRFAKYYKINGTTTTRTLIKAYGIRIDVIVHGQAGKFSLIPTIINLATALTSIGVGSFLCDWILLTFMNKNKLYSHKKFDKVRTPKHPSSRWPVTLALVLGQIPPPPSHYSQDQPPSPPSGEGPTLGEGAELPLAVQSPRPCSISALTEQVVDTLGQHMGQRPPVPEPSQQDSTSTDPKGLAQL

rat P2X2 [2] = target: T2, rat P2X2 (Rattus norvegicus, UniProt P49653, T184I); assay: action potential recording from Drosophila taste neurons, tested at […]; format: cell-based
T2 construct: gene P2rx2; T184I rP2X2::GFP
T2 sequence (P49653 1-472 T184I): T1 sequence (P49653 1-472) with T184I

rat P2X2 [3] = target: T1, rat P2X2; assay: action potential recording from Drosophila taste neurons, tested at […]; partial agonist; format: cell-based
human P2X2 = target: T3, human P2X2 (Homo sapiens, UniProt Q9UBL9); assay: action potential recording from Drosophila taste neurons, […] ATP; format: cell-based
T3 construct: gene P2RX2; human P2X2 variant A with C-terminal mCherry fusion tag
T3 sequence (Q9UBL9 1-471): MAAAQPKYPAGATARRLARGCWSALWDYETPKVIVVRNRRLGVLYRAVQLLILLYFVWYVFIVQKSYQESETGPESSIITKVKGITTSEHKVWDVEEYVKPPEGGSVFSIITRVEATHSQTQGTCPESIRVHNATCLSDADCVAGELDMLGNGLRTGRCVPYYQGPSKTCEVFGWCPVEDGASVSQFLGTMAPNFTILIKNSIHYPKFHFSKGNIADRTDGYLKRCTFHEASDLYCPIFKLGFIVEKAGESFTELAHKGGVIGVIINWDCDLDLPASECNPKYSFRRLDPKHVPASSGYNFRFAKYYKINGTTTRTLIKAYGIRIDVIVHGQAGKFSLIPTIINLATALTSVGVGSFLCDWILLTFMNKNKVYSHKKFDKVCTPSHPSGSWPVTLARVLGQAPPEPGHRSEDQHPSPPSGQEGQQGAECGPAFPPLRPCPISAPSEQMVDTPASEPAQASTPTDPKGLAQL

rat P2X2 [4] = target: T1, rat P2X2; assay: action potential recording from Drosophila taste neurons expressing the receptor; also whole-cell voltage clamp in HEK […] cells
rat P2X2 [5] = target: T2, rat P2X2; assay: action potential recording from Drosophila taste neurons expressing the mutant
rat P2X2 [6] = target: T1, rat P2X2; assay: action potential recording from Drosophila taste neurons, tested at […]; format: cell-based

Structure (SMILES): Nc1nc(F)nc2c1ncn2[C@@H]1O[C@H](COP(=O)(O)OP(=O)(O)OP(=O)(O)O)[C@@H](O)[C@H]1O [2F-ATP]
- EC50 (rat P2X2 [1]): 17.2 µM
- action potential recording from Drosophila taste neurons, tested at 100 μM (rat P2X2 [2]): flies expressing rat P2X2^T184I and found that ATPγS, ATPαS and 2F-ATP elicited responses similar to ATP

Structure (SMILES): Nc1nc(O)nc2c1ncn2[C@@H]1O[C@H](COP(=O)(O)OP(=O)(O)OP(=O)(O)O)[C@@H](O)[C@H]1O [2OH-ATP]
- action potential recording from Drosophila taste neurons, tested at 100 μM; part (rat P2X2 [3]): several modifications at this position show full (2F-ATP) or partial (2-hydroxy-ATP) agonist activity

Structure (SMILES): Nc1ncnc2c1ncn2[C@@H]1O[C@H](COP(=O)(O)OP(=O)(O)OP(=O)(O)O)[C@@H](O)[C@H]1O [ATP]
- action potential recording from Drosophila taste neurons, 10 μM ATP (human P2X2): The human P2X2 ortholog was also tested in Drosophila taste neurons ... and it responded to ATP in a similar fashion
- EC50 (rat P2X2 [4]): 8.7 µM
- EC50 (rat P2X2 [5]): 145 µM

Structure (SMILES): Nc1ncnc2c1ncn2[C@@H]1O[C@H](COP(O)(=S)OP(=O)(O)OP(=O)(O)O)[C@@H](O)[C@H]1O (stereo partly drawn) [ATPαS]
- action potential recording from Drosophila taste neurons, tested at 100 μM (rat P2X2 [6]): Several adenosine nucleotides gave responses as large as ATP, including the previously identified agonists ATPγS and ATPαS

Structure (SMILES): Nc1ncnc2c1ncn2[C@@H]1O[C@H](CO[P@](=O)(O)O[P@](=O)(O)O[P@@](=O)(O)S)[C@@H](O)[C@H]1O [ATPγS]
- action potential recording from Drosophila taste neurons, tested at 100 μM (rat P2X2 [6]): ATPγS and ATPαS have previously been shown to act as agonists ... both were also effective agonists in the Drosophila system
- action potential recording from Drosophila taste neurons, tested at 100 μM (rat P2X2 [2]): flies expressing rat P2X2^T184I and found that ATPγS, ATPαS and 2F-ATP elicited responses similar to ATP
